Experimental findings from patent US7498438B2, “Fused ring NK1 antagonists” (Schering Corporation, priority 2004, dated 2009) are described below.

Each structure is given as a SMILES string.

A word on the Ki: it is the equilibrium dissociation constant of an inhibitor or competing ligand from its target.

NK1 receptor, sequence (P25103 whole entry, species assumed): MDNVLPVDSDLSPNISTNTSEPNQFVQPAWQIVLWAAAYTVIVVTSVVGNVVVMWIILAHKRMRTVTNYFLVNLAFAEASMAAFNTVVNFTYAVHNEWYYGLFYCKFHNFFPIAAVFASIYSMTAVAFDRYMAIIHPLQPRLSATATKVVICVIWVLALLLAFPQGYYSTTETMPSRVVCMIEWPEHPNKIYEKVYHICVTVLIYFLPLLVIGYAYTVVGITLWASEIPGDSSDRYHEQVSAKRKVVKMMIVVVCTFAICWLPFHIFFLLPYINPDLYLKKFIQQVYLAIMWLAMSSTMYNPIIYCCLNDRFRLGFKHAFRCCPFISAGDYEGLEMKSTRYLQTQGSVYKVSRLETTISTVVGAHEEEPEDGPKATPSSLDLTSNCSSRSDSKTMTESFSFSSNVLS

This assay addresses NK1 receptor (Homo sapiens, UniProt P25103). The assay can be described thus: NK1 receptor binding: inhibition of Substance P binding, Ki by the Chang-Prusoff equation. The source says:
The in vitro and in vivo NK1, NK2 and NK3 activities of the compounds of Formula 1 can be determined by various procedures known in the art, such as a test for their ability to inhibit the activity of the NK1 agonist Substance P. The percent inhibition of neurokinin agonist activity is the difference between the percent of maximum specific binding (“MSB”) and 100%. The percent of MSB is defined by the following equation, wherein “dpm” represents “disintegrations per minute”:
[formula] The concentration at which the compound produces 50% inhibition of binding is then used to determine an inhibition constant (“Ki”) using the Chang-Prusoff equation.
The activities (potencies) for the compounds of the invention are determined by measuring their Ki values. […] Even more preferred are compounds having average Ki values of from 0.01 nM to about 10 nM for the NK1 receptor. Especially preferred compounds have NK1 average Ki values of from 0.01 nM to about 3 nM. Even more especially preferred compounds have NK1 average Ki values of from 0.01 nM to about 0.3 nM.
`C[C@@H](OC[C@@]1(c2ccccc2)CC[C@@H]2NC(=O)CC2N1)c1cc(C(F)(F)F)cc(C(F)(F)F)c1` (some centres unmarked) [Compound 5a] yielded a Ki of 0.23 nM. In turn, `C[C@@H](OC[C@@]1(c2ccccc2)CCC2OC(=O)NC2N1)c1cc(C(F)(F)F)cc(C(F)(F)F)c1` (single isomer, unassigned) [Compound 4a] gave a Ki of 0.62 nM. With `C[C@@H](OC[C@@]1(c2ccccc2)CC[C@@H]2NC(=O)CCC2N1)c1cc(C(F)(F)F)cc(C(F)(F)F)c1` (some centres unmarked) [Compound 7], the inhibition constant (Ki) is 0.3 nM. As for `C[C@@H](OC[C@@]1(c2ccccc2)C[C@H]2NC(=O)NC2CN1)c1cc(C(F)(F)F)cc(C(F)(F)F)c1` (some centres unmarked) [Compound 1a], the figure is 0.23 nM; as for `C[C@@H](OC[C@@]1(c2ccccc2)C[C@H]2OC(=O)NC2CN1)c1cc(C(F)(F)F)cc(C(F)(F)F)c1` (some centres unmarked) [Compound 9a], 0.28 nM. As for `C[C@@H](OC[C@@]1(c2ccccc2)CCC2OC(=O)NC2N1)c1cc(C(F)(F)F)cc(C(F)(F)F)c1` (single isomer, unassigned) [Compound 4b], the figure is 0.32 nM. As to `C[C@@H](OC[C@@]1(c2ccccc2)CC[C@@H]2NC(=O)OCCC2N1)c1cc(C(F)(F)F)cc(C(F)(F)F)c1` (some centres unmarked) [Compound 6a], the Ki is 0.14 nM. Regarding `C[C@@H](OC[C@@]1(c2ccccc2)CC[C@@H]2NC(=O)NCC2N1)c1cc(C(F)(F)F)cc(C(F)(F)F)c1` (some centres unmarked) [Compound 8], the Ki is 0.36 nM.
